In data set [1] the target is T1, Solute carrier family 22 member 6 (Homo sapiens, UniProt Q4U2R8).
T1 sequence (Q4U2R8 whole entry): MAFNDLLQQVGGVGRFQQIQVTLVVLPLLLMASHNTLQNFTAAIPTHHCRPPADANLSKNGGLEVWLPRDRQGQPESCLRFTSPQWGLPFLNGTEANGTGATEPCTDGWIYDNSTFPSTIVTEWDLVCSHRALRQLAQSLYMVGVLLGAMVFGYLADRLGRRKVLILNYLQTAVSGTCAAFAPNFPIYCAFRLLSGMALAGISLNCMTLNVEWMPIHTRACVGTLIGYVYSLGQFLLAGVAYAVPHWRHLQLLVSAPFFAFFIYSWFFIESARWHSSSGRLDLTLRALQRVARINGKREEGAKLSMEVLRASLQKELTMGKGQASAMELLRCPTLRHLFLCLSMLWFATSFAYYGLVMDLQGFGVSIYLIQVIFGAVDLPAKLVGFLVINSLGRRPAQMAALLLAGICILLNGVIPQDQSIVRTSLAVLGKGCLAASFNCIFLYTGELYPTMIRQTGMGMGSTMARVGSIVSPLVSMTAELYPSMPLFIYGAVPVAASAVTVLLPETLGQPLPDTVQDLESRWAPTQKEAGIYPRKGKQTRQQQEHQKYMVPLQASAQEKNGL
In words: TP_TRANSPORTER: inhibition of Urate uptake (Urate: 300 uM, alpha-KG: 2000 uM) in OAT1-expressing S2 cells. The class given is functional, cell-based. Set-up: scale not given: the % may be the effect or the level left. The conditions noted are these: s2, 2000 µM.

Substrate in data set [2]: O=c1[nH]c(=O)c2[nH]c(=O)[nH]c2[nH]1
In words: TP_TRANSPORTER: uptake in OAT1-expressing S2 cells. The class given is functional, cell-based.

The Km is the concentration of substrate that gives half-maximal velocity.

Turning to `O=C(O)CCC(=O)C(=O)O` [ALPHA-KETOGLUTARIC ACID], the Activity in data set [1] stood at 12.4%.

B1: Solute carrier family 22 member 6 (Homo sapiens) (protein)
chain: MAFNDLLQQVGGVGRFQQIQVTLVVLPLLLMASHNTLQNFTAAIPTHHCRPPADANLSKNGGLEVWLPRDRQGQPESCLRFTSPQWGLPFLNGTEANGTGATEPCTDGWIYDNSTFPSTIVTEWDLVCSHRALRQLAQSLYMVGVLLGAMVFGYLADRLGRRKVLILNYLQTAVSGTCAAFAPNFPIYCAFRLLSGMALAGISLNCMTLNVEWMPIHTRACVGTLIGYVYSLGQFLLAGVAYAVPHWRHLQLLVSAPFFAFFIYSWFFIESARWHSSSGRLDLTLRALQRVARINGKREEGAKLSMEVLRASLQKELTMGKGQASAMELLRCPTLRHLFLCLSMLWFATSFAYYGLVMDLQGFGVSIYLIQVIFGAVDLPAKLVGFLVINSLGRRPAQMAALLLAGICILLNGVIPQDQSIVRTSLAVLGKGCLAASFNCIFLYTGELYPTMIRQTGMGMGSTMARVGSIVSPLVSMTAELYPSMPLFIYGAVPVAASAVTVLLPETLGQPLPDTVQDLESRWAPTQKEAGIYPRKGKQTRQQQEHQKYMVPLQASAQEKNGL
With B1, the Km in data set [2] was 947 µM.

The values above are taken from ChEMBL document CHEMBL2074097, “Urate transport via human PAH transporter hOAT1 and its gene structure” (Kidney Int, 2003).
